Patent US20120184769A1, “METHOD FOR ISOLATING […]-N,N-DIACETONITRILE” (BASF SE, priority 2009, published 2012)

Experiment: Solubility of MGDN in water or aqueous ammonium sulfate solution
Type: physicochemical

## CC(C#N)N(CC#N)CC#N (stereo not drawn) [MGDN, methylglycinenitrile-N,N-diacetonitrile]
Above about 60° C., emulsion of MGDN and its aqueous solution
  dissolved MGDN in the aqueous solution (emulsion formed): more than 5 % by weight
At 10° C., in water or an aqueous ammonium sulfate solution
  solubility of MGDN in water: about 0.5 % by weight
At around 60° C.
  solubility of MGDN in water: about 5 % by weight
